Key:
[1] = system: Xenopus larvae; details: stage 50 to 54, devices: diuron-spiked tank water after 10 days of circulation, T(+): cyclophosphamide 20 mg/L in river water
Method: The mass of Tubifex tubifex worms is of the order of 500 mg (fresh weight) per sanitizing device and is representative of the average density of these oligochaete worms in the natural environment (56 000 oligochaete worms/m^2 of river).
The acute toxicity of the sanitized water is measured by incubating Xenopus larvae, selected at a stage of development of 50 to 54 […], for a period of 12 days with said sanitized water on larvae. This measurement permits observation of the signs of intoxication of the larvae induced by exposure to the water obtained at the outlet of the sanitizing device at the end of treatment.

[2] = system: Xenopus larvae; details: cyclophosphamide 20 mg/L in river water; compared with negative control T(−) and sanitized water D8

O=P1(N(CCCl)CCCl)NCCCO1 (stereo not drawn) [T(+), cyclophosphamide]
Toxicity, 1 to 5 days [1]: Lethal
Toxicity, 5 to 12 days [1]: Lethal
Genotoxicity (induction of micronuclei) [2]: confirmed genotoxicity

— patent US9758412B2, “Device for purifying liquid wastewater, and method for cleaning liquid wastewater using said device” (CENTRE NATIONAL DE LA RECHERCHE SCIENTIFIQUE (C.N.R.S.), priority 2012, dated 2017)
